Measured values: patent US5580757A, “Cloning and expression of biologically active α-galactosidase A as a fusion protein” (The Mount Sinai School of Medicine of the City University …, priority 1994, dated 1996)
Like-named read-outs stand apart in the source and are kept apart here. Values belong to the molecule of their own block, whether it stands above or below them.

Experiments:
[1] = target: recombinant human α-galactosidase A secreted by CHO DG5.3 cells (human)
[2] = test system: CHO cells secreting recombinant α-Gal A; test: Effect of glycosylation inhibitors on the secretion of recombinant α-Gal A; format: cell-based, Chinese hamster; conditions: recombinant CHO cultures, FIG. 15; concentration not given
Description: FIG. 15. Effect of glycosylation inhibitors on the secretion of recombinant α-Gal.

[3] = target: recombinant human α-galactosidase A secreted by CHO DG5.3 cells (human); remark: listed apart in the source
[4] = target: α-Gal A-Protein A domain E fusion protein (human; Staphylococcus aureus)
[5] = target: Sambucus nigra agglutinin (Sambucus nigra); test: SNA-Sepharose chromatography of secreted enzyme
[6] = target: human α-Gal A purified from spleen (Homo sapiens, UniProt P06280); conditions: read-out: Km (4-MU-α-D-Gal); cited from earlier work
[7] = target: human α-Gal A purified from plasma (Homo sapiens, UniProt P06280); conditions: read-out: Km (4-MU-α-D-Gal); cited from earlier work
[8] = substrate: Cc1cc(=O)oc2cc(O[C@H]3O[C@H](CO)[C@H](O)[C@H](O)[C@H]3O)ccc12; test: purified protein, by the assay type; conditions: other: recombinant α-Gal A; artificial substrate; pH 4.6; 37.0 °C

shift in mobility on SDS-PAGE [1]: 4 kDa
Molecule: endoglycosidase F (enzyme)

Molecule: O[C@H]1[C@H]2[C@H](O)CCCN2C[C@H]1O [swainsonine]
α-Gal A secretion rate [2]: remains the same as the controls

Molecule: OC[C@H]1NC[C@H](O)[C@@H](O)[C@@H]1O [deoxynojirimycin]
α-Gal A secretion rate [2]: remains the same as the controls

shift in mobility on SDS-PAGE [3]: 7 kDa
Molecule: peptide:N-glycosidase F (from UniProt P21163) (enzyme)

Molecule: OC[C@H]1NC[C@@H](O)[C@@H](O)[C@@H]1O [deoxymannojirimycin]
α-Gal A secretion rate [2]: remains the same as the controls

% Of Recovered α-Gal A Activity in the IgG column flow-through after collagenase treatment [4]: 89%
Molecule: Collagenase (enzyme)

Molecule: tunicamycin
inhibition of secretion of α-Gal A [2]: ≤ 80%

Molecule: recombinant human α-galactosidase A secreted by CHO DG5.3 cells (enzyme)
Percent of Secreted α-Gal A Bound to SNA-Lectin [5]: 5%

Molecule: Cc1cc(=O)oc2cc(O[C@H]3O[C@H](CO)[C@H](O)[C@H](O)[C@H]3O)ccc12 [4-MU-α-D-galactopyranoside, 4-methylumbelliferyl-α-D-galactopyranoside]
Km [6]: 2.5 mM
Km [7]: 1.9 mM

B1: recombinant human α-galactosidase A (α-Gal A), secreted by CHO DG5.3 cells, purified (Homo sapiens) (protein)
chain: LDNGLARTPTMGWLHWERFMCNLDCQEEPDSCISEKLFMEMAELMVSEGWKDAGYEYLCIDDCWMAPQRDSEGRLQADPQRFPHGIRQLANYVHSKGLKLGIYADVGNKTCAGFPGSFGYYDIDAQTFADWGVDLLKFDGCYCDSLENLADGYKHMSLALNRTGRSIVYSCEWPLYMWPFQKPNYTEIRQYCNHWRNFADIDDSWKSIKSILDWTSFNQERIVDVAGPGGWNDPDMLVIGNFGLSWNQQVTQMALWAIMAAPLFMSNDLRHISPQAKALLQDKDVIAINQDPLGKQGYQLRQGDNFEVWERPLSGLAWAVAMINRQEIGGPRSYTIAVASLGKGVACNPACFITQLLPVKRKLGFYEWTSRLRSHINPTGTVLLQLENTMQMSLKDLL
Km [8]: 1.9 mM
